Experimental data from patent publication US6709873B1, “Method for production of antibodies to specific sites of rapamycin” (Isodiagnostika Inc., priority 1997, dated 2004).

Assays:
Design in all cases: concentration or dose not given beside the values
MoAb R-2-2 = assay: Inhibition ELISA of MoAb R-2-2; type: binding, mouse; settings: tissue culture supernatant
Procedure: (§1) Inhibition ELISA Protocol
(§2) 1. Use Falcon® Pro-bind™ inununoplates.
(§3) 2. Dilute coating antigen to 1 μg/mL in carbonate-bicarbonate buffer.
(§4) Add 100 μL per well and incubate overnight at 4° C.
(§5) 3. On the same day prepare inhibiting antigen tubes. Aliquot antibodies into glass test tubes. Prepare appropriate antigen concentration in ethanol and add to aliquoted antibody at 10 μL ethanol solution/250 μL antibody.
(§6) Vortex tubes and incubate overnight at 4° C.
(§7) 4. Shake out wells and wash 3× with 200 μL PBS/0.05% TWEEN™ (polyoxyethylene-sorbitol) (v/v) per well.
(§8) 5. Add 200 μL blocking buffer per well (PBS/2% BSA (w/v)).
(§9) Incubate 60 min at room temperature.
(§10) 7. Transfer contents of inhibition tubes to antigen-coated plate, 100 μL per well. Incubate 60 min at 37° C.
(§11) 9. […] Add 100 μL per well and incubate at 37° C. for 60 min.
(§12) 11. […] Add 100 μL per well and incubate in the dark at room temperature. Absorbance can be read at 405 nm at approximately 15-min intervals.
(§13) To further characterize the reactivity of monoclonal antibodies from various clones, inhibition ELISA were performed.

MoAb R-1-1 = assay: Inhibition ELISA of MoAb R-1-1; type: binding, mouse; settings: tissue culture supernatant
Procedure: as §1, §2, §3, §4, §5, §6, §7, §8, §9, §10, §11, §12, §13

MoAb R-3-1 = assay: Inhibition ELISA of MoAb R-3-1; type: binding, mouse; settings: tissue culture supernatant
Procedure: as §1, §2, §3, §4, §5, §6, §7, §8, §9, §10, §11, §12, §13

[1] = tested on: Rabbit #1 polyclonal antibody (Rapa-42-DVS-KLH immunogen); assay: Inhibition ELISA of rabbit #1 polyclonal serum; type: binding; settings: Rapa antigen coated ELISA plate
Procedure: as §1, §2, §3, §4, §5, §6, §7, §8, §9, §10, §11, §12

MoAb R-1-5 = assay: Inhibition ELISA of MoAb R-1-5; type: binding, mouse; settings: tissue culture supernatant
Procedure: as §1, §2, §3, §4, §5, §6, §7, §8, §9, §10, §11, §12, §13

[2] = tested on: Chicken polyclonal antibody (IgY, Rapa-42-DVS-KLH immunogen); assay: Inhibition ELISA of chicken IgY prep; type: binding; settings: Rapa antigen coated ELISA plate
Procedure: as §1, §2, §3, §4, §5, §6, §7, §8, §9, §10, §11, §12

| SMILES | Percent inhibition of MoAb R-2-2 (MoAb R-2-2) [%] | Percent inhibition of MoAb R-1-1 (MoAb R-1-1) [%] | Percent inhibition of MoAb R-3-1 (MoAb R-3-1) [%] | Percent inhibition of Rabbit #1 polyclonal antibody [1] [%] | Percent inhibition of MoAb R-1-5 (MoAb R-1-5) [%] | Percent inhibition of Chicken polyclonal antibody [2] [%] |
| --- | --- | --- | --- | --- | --- | --- |
| C=CCC1C=C(C)CC(C)CC(OC)C2OC(O)(C(=O)C(=O)N3CCCCC3C(=O)OC(C(C)=CC3CCC(O)C(OC)C3)C(C)C(O)CC1=O)C(C)CC2O (stereo not drawn) [FK met 1, 13-O-Demethyl] | 19 | 46 | 0 | 0 | 24 | 0 |
| C=CCC1C=C(C)CC(C)CC(O)C2OC(O)(C(=O)C(=O)N3CCCCC3C(=O)OC(C(C)=CC3CCC(O)C(OC)C3)C(C)C(O)CC1=O)C(C)CC2OC (stereo not drawn) [FK met 2, 15-O-Demethyl] | 16 | 57 | 0 | 0 | 36 | 0 |
| C=CCC1C=C(C)CC(C)CC(OC)C2OC(O)(C(=O)C(=O)N3CCCCC3C(=O)OC(C(C)=CC3CCC(O)C(O)C3)C(C)C(O)CC1=O)C(C)CC2OC (stereo not drawn) [FK met 3, 31-O-Demethyl] | 9 | 45 | 0 | 0 | 26 | 0 |
| C=CCC1C=C(C)CC(C)CC(OC)C2OC(O)(C(=O)C(=O)N3CCCCC3C(=O)OC(C(C)=CC3CCC(O)C(O)C3)C(C)C(O)CC1=O)C(C)CC2O (stereo not drawn) [FK met 4, 13,3 1-Didemethyl] | 13 | 53 | 0 | 0 | 38 | 13 |
| C=CCC1C=C(C)CC(C)CC(O)C2OC(O)(C(=O)C(=O)N3CCCCC3C(=O)OC(C(C)=CC3CCC(O)C(O)C3)C(C)C(O)CC1=O)C(C)CC2OC (stereo not drawn) [FK met 5, 15,3 1-O-Didemethyl] | 13 | 46 | 0 | 0 | 26 | 0 |
